One test addresses human DGKζ (Homo sapiens (Human), UniProt Q13574). Put plainly: biochemical. The note with it: liposome (LIPGLO) assay. It counts as biochemical.
For test [1], the system named is Human venous whole blood (IFN-γ). Put plainly: Human whole blood IFN-γ assay. It counts as cell-based. Here is the method: Assay 10: Human Whole Blood IFN-γ Assay
Human venous whole blood (22.5 μL per well), obtained from healthy donors, was pre-treated with compounds for one hour at 37° C. in a humidified 95% air/5% CO2 incubator. The blood was stimulated with 2.5 μL anti-human CD3 and anti-CD28 mAb at a final concentration of 1 μg/mL each for 24 hours at 37° C. IFN-γ in the supernatants was measured using AlphLISA kit (Cat #AL217).

Setting [2] is: Homo sapiens, human whole blood IFN-γ, read-out: INFg Whole Blood.
[3] abbreviates: read-out: INFg Whole Blood, human whole blood IFN-γ.

Like-named read-outs stand apart in the source and are kept apart here.

Nine compounds from patent US11964973B2 (priority 2019, dated 2024) can be followed below.

Chain of human DGKζ (Q13574 whole entry, looked up): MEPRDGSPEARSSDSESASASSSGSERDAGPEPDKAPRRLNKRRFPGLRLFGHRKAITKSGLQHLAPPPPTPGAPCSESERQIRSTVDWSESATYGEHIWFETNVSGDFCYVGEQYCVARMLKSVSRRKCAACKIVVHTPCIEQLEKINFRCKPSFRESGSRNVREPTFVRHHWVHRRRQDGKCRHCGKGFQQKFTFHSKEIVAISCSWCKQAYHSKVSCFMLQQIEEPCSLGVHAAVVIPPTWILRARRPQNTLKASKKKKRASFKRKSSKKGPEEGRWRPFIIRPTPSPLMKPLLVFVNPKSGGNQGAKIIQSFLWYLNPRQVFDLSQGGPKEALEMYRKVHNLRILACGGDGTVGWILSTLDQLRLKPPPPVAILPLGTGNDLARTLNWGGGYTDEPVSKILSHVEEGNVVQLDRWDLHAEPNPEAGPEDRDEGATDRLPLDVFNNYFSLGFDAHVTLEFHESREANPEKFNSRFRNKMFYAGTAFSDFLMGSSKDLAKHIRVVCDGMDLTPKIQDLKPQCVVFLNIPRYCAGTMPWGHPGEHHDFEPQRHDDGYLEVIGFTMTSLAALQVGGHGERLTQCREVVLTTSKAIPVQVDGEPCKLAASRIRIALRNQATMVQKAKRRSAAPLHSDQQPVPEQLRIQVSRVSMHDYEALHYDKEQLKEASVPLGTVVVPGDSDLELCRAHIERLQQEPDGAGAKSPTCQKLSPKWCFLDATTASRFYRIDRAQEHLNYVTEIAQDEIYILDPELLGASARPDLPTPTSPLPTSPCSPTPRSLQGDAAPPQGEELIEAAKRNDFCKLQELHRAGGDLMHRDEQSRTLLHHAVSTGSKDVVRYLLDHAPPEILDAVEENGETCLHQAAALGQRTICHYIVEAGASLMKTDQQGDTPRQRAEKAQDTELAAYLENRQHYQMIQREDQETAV

Consider `Cn1c(=O)nc(N2CC[C@@H](Oc3cccc(C(F)(F)F)c3)[C@H](O)C2)c2nc(C#N)ccc21` (single isomer, unassigned) [Example 273, (+/−)-trans-4-(3-hydroxy-4-(3-(trifluoromethyl)phenoxy)piperidin-1-yl)-1-methyl-2-oxo-1,2-dihydropyrido[3,2-d]pyrimidine-6-carbonitrile], for which the IC50 at human DGKζ (Table A, read-out: DGKζ) was determined as 4.7 µM. As to `CC[C@@H]1CN(c2cc(=O)n(C)c3ccc(C#N)nc23)CC[C@H]1Oc1ccc(OC(C)C)cc1` [Example 161, 8-((3R,4R)-3-ethyl-4-(4-isopropoxyphenoxy)piperidin-1-yl)-5-methyl-6-oxo-5,6-dihydro-1,5-naphthyridine-2-carbonitrile], the IC50 at human DGKζ (read-out: DGKζ LIPGLO IC50) was determined as 0.54 µM. The EC50 in test [1] (Homo sapiens, 24 h, human whole blood, anti-CD3 plus anti-CD28, 24 hours, read-out: INFg Whole Blood Normalized Agonist EC50) was 2.4 µM.

For `CC[C@@H]1CN(c2cc(=O)n(C)c3ccc(C#N)nc23)CC[C@H]1Oc1ccc(OC(C)C)cn1` [Example 192, 8-((3R,4R)-3-ethyl-4-((5-isopropoxypyridin-2-yl)oxy)piperidin-1-yl)-5-methyl-6-oxo-5,6-dihydro-1,5-naphthyridine-2-carbonitrile], the IC50 on human DGKζ (Table A, read-out: DGKζ) was found to be 0.42 µM. The EC50 in test [1] (setting [2]) came out at 0.29 µM.

For the compound `CC[C@@H]1CN(c2cc(=O)n(C)c3ccc(C#N)nc23)CC[C@@H]1Oc1ccc(OC(C)C)cn1` [Example 203, 8-((3R,4S)-3-ethyl-4-((5-isopropoxypyridin-2-yl)oxy)piperidin-1-yl)-5-methyl-6-oxo-5,6-dihydro-1,5-naphthyridine-2-carbonitrile], at human DGKζ (Table A, read-out: DGKζ), the IC50 came to 0.23 µM. Regarding `CC[C@@H]1CN(c2cc(=O)n(C)c3ccc(C#N)nc23)CC[C@@H]1Oc1ccc(OC(C)C)cn1` [Example 204, 8-((3R,4S)-3-ethyl-4-((5-isopropoxypyridin-2-yl)oxy)piperidin-1-yl)-5-methyl-6-oxo-5,6-dihydro-1,5-naphthyridine-2-carbonitrile], at human DGKζ (Table A, read-out: DGKζ), the IC50 was found to be 0.33 µM. As for `C[C@@H]1CN(c2cc(=O)n(C)c3ccc(C#N)nc23)CC[C@@H]1Oc1ccc(C2CC2)cn1` [Example 224, 8-((3R,4S)-4-((5-cyclopropylpyridin-2-yl)oxy)-3-methylpiperidin-1-yl)-5-methyl-6-oxo-5,6-dihydro-1,5-naphthyridine-2-carbonitrile], the EC50 in test [1] (setting [2]) amounted to 5.8 µM. Same read-out and setting: the figure for `C[C@@H]1CN(c2cc(=O)n(C)c3ccc(C#N)nc23)CC[C@@H]1Oc1ccc(C(F)(F)F)cn1` [Example 225, 5-methyl-8-((3R,4S)-3-methyl-4-((5-(trifluoromethyl)pyridin-2-yl)oxy)piperidin-1-yl)-6-oxo-5,6-dihydro-1,5-naphthyridine-2-carbonitrile] is 1.8 µM.

As for `CCO[C@@H]1CN(c2nc(=O)n(C)c3ccc(C#N)nc23)CC[C@H]1Oc1cccc(C(F)(F)F)c1` [Example 278, 4-((3R,4R)-3-ethoxy-4-(3-(trifluoromethyl)phenoxy)piperidin-1-yl)-1-methyl-2-oxo-1,2-dihydropyrido[3,2-d]pyrimidine-6-carbonitrile], the EC50 in test [1] (setting [3]) stood at 0.64 µM. Regarding `CCO[C@@H]1CN(c2nc(=O)n(C)c3ccc(C#N)nc23)CC[C@H]1Oc1cccc(C(F)(F)F)c1` [Example 279, 4-((3R,4R)-3-ethoxy-4-(3-(trifluoromethyl)phenoxy)piperidin-1-yl)-1-methyl-2-oxo-1,2-dihydropyrido[3,2-d]pyrimidine-6-carbonitrile], the EC50 in test [1] (setting [3]) stood at 8.7 µM.
